Reference: US20240239767A1 (AstraZeneca AB, priority 2022, published 2024)
pIC50: −log10 of the molar value.

Columns and labels:
PCSK9 [1] = biological target: T1, PCSK9 (Homo sapiens, UniProt Q8NBP7, G670E/V474I); assay: cell-based
Target sequence in this assay (Q8NBP7 31-152): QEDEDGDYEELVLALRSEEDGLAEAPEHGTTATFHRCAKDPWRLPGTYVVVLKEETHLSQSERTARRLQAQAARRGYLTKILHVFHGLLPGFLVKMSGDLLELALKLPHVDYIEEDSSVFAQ
Target sequence in this assay (Q8NBP7 153-692 V474I/G670E): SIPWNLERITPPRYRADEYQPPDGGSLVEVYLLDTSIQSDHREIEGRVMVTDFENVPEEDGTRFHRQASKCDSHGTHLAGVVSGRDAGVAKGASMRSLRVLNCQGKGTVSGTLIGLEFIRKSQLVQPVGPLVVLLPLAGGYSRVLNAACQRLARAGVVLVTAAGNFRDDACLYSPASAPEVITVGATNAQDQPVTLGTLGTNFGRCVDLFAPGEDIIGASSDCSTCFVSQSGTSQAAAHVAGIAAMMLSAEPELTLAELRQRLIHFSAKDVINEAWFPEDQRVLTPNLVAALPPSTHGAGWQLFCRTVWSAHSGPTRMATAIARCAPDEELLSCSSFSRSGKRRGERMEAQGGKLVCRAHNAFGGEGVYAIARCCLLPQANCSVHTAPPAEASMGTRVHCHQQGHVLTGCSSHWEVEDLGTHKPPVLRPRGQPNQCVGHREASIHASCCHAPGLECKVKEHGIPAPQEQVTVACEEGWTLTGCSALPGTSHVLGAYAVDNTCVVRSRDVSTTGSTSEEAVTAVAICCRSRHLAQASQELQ

PCSK9 [2] = biological target: T1, PCSK9; assay: biochemical
Target sequence in this assay (Q8NBP7 with tags, fused parts or gaps V474I/G670E): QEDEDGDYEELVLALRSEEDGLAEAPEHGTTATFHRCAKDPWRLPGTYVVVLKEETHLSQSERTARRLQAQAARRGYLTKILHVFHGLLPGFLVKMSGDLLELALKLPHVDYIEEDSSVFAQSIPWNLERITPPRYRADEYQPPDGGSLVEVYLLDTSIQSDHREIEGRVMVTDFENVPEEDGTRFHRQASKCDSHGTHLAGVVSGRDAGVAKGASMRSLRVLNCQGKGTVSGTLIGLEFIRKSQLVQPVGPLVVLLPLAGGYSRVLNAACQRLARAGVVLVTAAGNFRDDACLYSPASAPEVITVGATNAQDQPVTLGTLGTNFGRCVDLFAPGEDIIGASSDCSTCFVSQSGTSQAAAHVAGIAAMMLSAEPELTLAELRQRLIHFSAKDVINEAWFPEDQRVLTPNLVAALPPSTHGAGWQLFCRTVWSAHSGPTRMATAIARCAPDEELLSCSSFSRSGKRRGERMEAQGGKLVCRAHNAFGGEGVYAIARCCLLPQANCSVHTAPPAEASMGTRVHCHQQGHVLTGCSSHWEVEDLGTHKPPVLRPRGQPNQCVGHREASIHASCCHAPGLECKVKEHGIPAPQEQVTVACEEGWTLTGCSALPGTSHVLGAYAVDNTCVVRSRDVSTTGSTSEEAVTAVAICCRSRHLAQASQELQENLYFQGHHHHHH

[3] = biological target: T2, potassium ion channel hERG (human Ether-á-go-go-Related Gene) (Homo sapiens, UniProt Q12809); assay: Assay 5 - hERG assay (SyncroPatch 384PE patch clamp, CHO cells); format: cell-based; settings: geometric mean, CHO cells over-expressing hERG, read-out: Assay 5 (hERG Hu CHO IF EPh CR-Syncro) GMean IC50
T2 construct: expressed in transfected cells; host or cells: Chinese hamster ovary K1 (CHO)
Method: Assay 5—hERG Assay (Human Ether-á-go-go-Related Gene)
This assay (human Ether-á-go-go-Related Gene) measures activity of the compounds at the potassium ion channel hERG (human Ether-á-go-go-Related Gene).
Experiments were performed on the SyncroPatch 384PE high throughput patch clamp platform at room temperature and medium resistance chips with 4 patch holes per site. Chinese hamster ovary K1 (CHO) cell lines over-expressing the ion channel of choice (hERG) were used in assay-ready format and kept in liquid nitrogen or were used from live culture. Cells were either thawed and diluted in HBSS or were detached from flasks and resuspended in HBSS. HBSS comprised 140 mM NaCl, 4 mM KCl, 10 mM HEPES and 5 mM Glucose (pH 7.4). The internal patch clamp solution was KF 120 mM, KCl 20 mM, HEPES 10 mM, EGTA 10 mM, and 25 μM Escin (pH 7.2). After the sealing process was complete, the external solution was exchanged for external patch clamp solution comprising NaCl 80 mM, KCl 4 mM, HEPES 10 mM, CaCl2 2 mM, MgCl2 1 mM, glucose 5 mM, and NMDG 60 mM (pH 7.4). All solutions were stored at room temperature, except Escin, which was stored at 4° C. All test compounds were dispensed in greiner-bio 384 well plates and tested in a 6 point cumulative assay (final DMSO concentration 0.33%). Only wells that passed previously agreed acceptance criteria for this platform were used in this analysis (30 MegaOhm seal resistance, Z prime>0.4 and current size>0.2 nA).

[4] = biological target: GSK3b (Glycogen synthase kinase-3 beta) (Homo sapiens, UniProt P49841); assay: Assay 6 - GSK3b assay (ThermoFisher, FRET Z-Lyte); format: biochemical; settings: geometric mean; ATP Conc: 10.000 μM; read-out: Assay 6 (GSK3B FRET-Z-Lyte CR) GMean IC50 (μM) ATP Conc: 10.000
Method: This assay measures the activity of the compounds at GSK3b (Glycogen synthase kinase-3 beta).
The test compounds were screened in 1% DMSO (final) in the well. For 10-point titrations, 3-fold serial dilutions are conducted from the starting concentration of 10 μM.
• Bar-coded Corning, low volume NBS, black 384-well plate • 1. 2.5 μL—4× Test Compound or 100 nL 100× plus 2.4 μL kinase buffer • 2. 5 μL—2× Peptide/Kinase Mixture • 3. 2.5 μL—4× ATP Solution • 4. 30-second plate shake • 5. 60-minute Kinase Reaction incubation at room temperature • 6. 5 μL—Development Reagent Solution • 7. 30-second plate shake • 8. 60-minute Development Reaction incubation at room temperature • 9. Read on fluorescence plate reader and analyse the data
In step 2, the 2× GSK3β (GSK3 beta)/Ser/Thr (Glycogen synthase kinase-3 beta/Serine/Threonine) 09 mixture is prepared in 50 mM HEPES (4-(2-hydroxyethyl)-1-piperazineethanesulfonic acid) pH 7.5, 0.01% BRIJ-35, 10 mM MgCl2, 1 mM EGTA (egtazic acid). The final 10 μL Kinase Reaction consists of 0.22-0.92 ng GSK3β (GSK3 beta) and 2 μM Ser/Thr 09 in 50 mM HEPES pH 7.5, 0.01% BRIJ-35, 10 mM MgCl2, 1 mM EGTA.
In step 3 the ATP Solution is diluted to a 4× working concentration in Kinase Buffer (50 mM HEPES pH 7.5, 0.01% BRIJ-35, 10 mM MgCl2, 1 mM EGTA).
In Step 6 the Development Reagent is diluted 1:512 in Development Buffer (10× Novel PKC Lipid Mix: 2 mg/mL Phosphatidyl Serine, 0.2 mg/mL DAG in 20 mM HEPES, pH 7.4, 0.3% CHAPS).
SelectScreen® Kinase Profiling Service uses XLfit from IDBS. The dose response curve is curve fit to model number 205 (sigmoidal dose-response model).

Chain of GSK3b (Glycogen synthase kinase-3 beta) (P49841 whole entry): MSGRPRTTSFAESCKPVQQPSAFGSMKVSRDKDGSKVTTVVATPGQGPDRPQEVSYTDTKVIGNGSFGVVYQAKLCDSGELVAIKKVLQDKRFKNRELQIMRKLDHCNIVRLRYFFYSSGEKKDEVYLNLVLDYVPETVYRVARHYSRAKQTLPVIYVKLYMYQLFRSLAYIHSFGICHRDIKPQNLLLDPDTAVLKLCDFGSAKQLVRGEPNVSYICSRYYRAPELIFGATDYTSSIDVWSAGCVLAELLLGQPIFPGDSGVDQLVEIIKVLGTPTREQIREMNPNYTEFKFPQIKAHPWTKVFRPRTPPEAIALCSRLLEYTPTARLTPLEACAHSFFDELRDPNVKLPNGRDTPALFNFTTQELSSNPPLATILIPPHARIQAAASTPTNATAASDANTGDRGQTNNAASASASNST
T2 sequence (Q12809 whole entry): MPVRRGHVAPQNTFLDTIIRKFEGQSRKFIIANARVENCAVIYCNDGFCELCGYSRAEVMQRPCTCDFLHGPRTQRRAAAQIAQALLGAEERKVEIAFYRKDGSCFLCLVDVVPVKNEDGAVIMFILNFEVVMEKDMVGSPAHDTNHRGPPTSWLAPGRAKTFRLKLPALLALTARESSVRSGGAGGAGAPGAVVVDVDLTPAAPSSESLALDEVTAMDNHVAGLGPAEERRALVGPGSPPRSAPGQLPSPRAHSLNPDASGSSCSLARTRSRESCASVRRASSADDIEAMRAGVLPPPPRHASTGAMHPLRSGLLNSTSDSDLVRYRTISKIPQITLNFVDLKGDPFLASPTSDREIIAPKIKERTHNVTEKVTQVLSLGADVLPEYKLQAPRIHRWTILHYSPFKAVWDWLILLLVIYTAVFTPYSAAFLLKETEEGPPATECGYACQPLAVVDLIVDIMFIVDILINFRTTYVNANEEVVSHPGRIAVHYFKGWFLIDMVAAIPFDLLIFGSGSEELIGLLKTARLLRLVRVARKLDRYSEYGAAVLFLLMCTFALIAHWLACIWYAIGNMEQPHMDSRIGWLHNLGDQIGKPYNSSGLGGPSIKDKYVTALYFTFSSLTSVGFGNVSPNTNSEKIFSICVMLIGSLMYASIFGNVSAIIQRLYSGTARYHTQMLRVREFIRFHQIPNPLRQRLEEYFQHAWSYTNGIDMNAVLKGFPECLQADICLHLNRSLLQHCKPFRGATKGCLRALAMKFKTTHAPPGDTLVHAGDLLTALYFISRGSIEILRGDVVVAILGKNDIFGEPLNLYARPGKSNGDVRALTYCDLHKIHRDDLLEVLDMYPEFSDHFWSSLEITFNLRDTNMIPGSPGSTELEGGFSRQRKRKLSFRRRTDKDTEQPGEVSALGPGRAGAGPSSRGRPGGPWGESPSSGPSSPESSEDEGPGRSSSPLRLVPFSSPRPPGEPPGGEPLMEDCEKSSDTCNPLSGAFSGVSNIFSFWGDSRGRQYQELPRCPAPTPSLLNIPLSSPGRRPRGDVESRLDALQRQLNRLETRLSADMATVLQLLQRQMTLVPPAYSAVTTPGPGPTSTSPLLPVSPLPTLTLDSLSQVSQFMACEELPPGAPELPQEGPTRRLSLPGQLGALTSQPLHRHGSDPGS

| SMILES | pIC50 (PCSK9 [1]) | pIC50 (PCSK9 [2]) | pIC50 [3] | IC50 [4] [µM] |
| --- | --- | --- | --- | --- |
| CSc1cnc2[nH]c(N[C@H]3CC[C@H](Nc4ccc(-n5ccccc5=O)cn4)C3)nc2c1 [Example 59, 6′-(((1S,3S)-3-((6-(Methylthio)-3H-imidazo[4,5-b]pyridin-2-yl)amino)cyclopentyl)amino)-2H-[1,3′-bipyridin]-2-one] | 6.97 | 8.43 | < 4.87 | 0.794 |
| O=c1ccccn1-c1ccc(N[C@H]2CC[C@H](Nc3nc4cc(F)cnc4[nH]3)C2)nc1 [Example 48, 6′-(((1S,3S)-3-((6-Fluoro-3H-imidazo[4,5-b]pyridin-2-yl)amino)cyclopentyl)amino)-2H-[1,3′-bipyridin]-2-one] | 7.00 | 8.68 | < 4.40 | 0.805 |
| O=c1ccccn1-c1ccc(N[C@H]2CC[C@H](Nc3nc4cc(C(F)(F)F)cnc4[nH]3)C2)nc1 [Example 62, 6′-(((1S,3S)-3-((6-(Trifluoromethyl)-3H-imidazo[4,5-b]pyridin-2-yl)amino)cyclopentyl)amino)-2H-[1,3′-bipyridin]-2-one] | 7.05 | 8.66 | < 4.40 | 0.153 |
| O=c1c(OC(F)F)cccn1-c1ccc(N[C@H]2CC[C@H](Nc3nc4cccnc4s3)C2)nc1 [Example 81, 3-(Difluoromethoxy)-6′-(((1S,3S)-3-(thiazolo[5,4-b]pyridin-2-ylamino)cyclopentyl)amino)-2H-[1,3′-bipyridin]-2-one] | 6.97 | 8.82 | 5.21 | > 10 |
| CN1CC(=O)N(c2ccc(N[C@H]3CC[C@H](Nc4nc5cccnc5[nH]4)C3)nc2)C1=O [Example 38, 3-(6-(((1S,3S)-3-((3H-Imidazo[4,5-b]pyridin-2-yl)amino)cyclopentyl)amino)pyridin-3-yl)-1-methylimidazolidine-2,4-dione] | 6.80 | 8.24 | < 4.40 | > 10 |
| O=c1ccc(Cl)cn1-c1ccc(N[C@H]2CC[C@H](Nc3nc4cccnc4[nH]3)C2)nc1 [Example 71, 6′-(((1S,3S)-3-((3H-Imidazo[4,5-b]pyridin-2-yl)amino)cyclopentyl)amino)-5-chloro-2H-[1,3′-bipyridin]-2-one] | 6.91 | 8.59 | < 4.40 | 2.83 |
| N#Cc1ccc(=O)n(-c2ccc(N[C@H]3CC[C@H](Nc4nc5cccnc5[nH]4)C3)nc2)c1 [Example 43, 6′-(((1S,3S)-3-((3H-Imidazo[4,5-b]pyridin-2-yl)amino)cyclopentyl)amino)-2-oxo-2H-[1,3′-bipyridine]-5-carbonitrile] | 6.70 | 8.38 | < 4.40 | > 10 |
| N#Cc1ccc2nc(N[C@H]3CC[C@H](Nc4ccc(-n5ccccc5=O)cn4)C3)oc2c1 [Example 5, 2-(((1S,3S)-3-((2-Oxo-2H-[1,3′-bipyridin]-6′-yl)amino)cyclopentyl)amino)benzo[d]oxazole-6-carbonitrile] | 5.77 | 8.05 | 5.22 | 5.52 |
| N#Cc1ccc(=O)n(-c2ccc(N[C@H]3CC[C@H](Nc4nc5cccnc5s4)C3)nc2)c1 [Example 26, 2-Oxo-6′-(((1S,3S)-3-(thiazolo[5,4-b]pyridin-2-ylamino)cyclopentyl)amino)-2H-[1,3′-bipyridine]-5-carbonitrile] | 6.77 | 8.17 | 4.71 | > 10 |
| O=c1ccccn1-c1ccc(N[C@H]2CC[C@H](Nc3nc4c(Cl)c(Cl)cnc4[nH]3)C2)nc1 [Example 50, 6′-(((1S,3S)-3-((6,7-Dichloro-3H-imidazo[4,5-b]pyridin-2-yl)amino)cyclopentyl)amino)-2H-[1,3′-bipyridin]-2-one] | 6.72 | 7.98 | 4.49 | 0.024 |
| O=c1c(Cl)cccn1-c1ccc(N[C@H]2CC[C@H](Nc3nc4cccnc4o3)C2)nc1 [Example 16, 3-Chloro-6′-(((1S,3S)-3-(oxazolo[5,4-b]pyridin-2-ylamino)cyclopentyl)amino)-2H-[1,3′-bipyridin]-2-one] | 7.09 | 8.80 | 4.55 | > 10 |
| O=c1ccccn1-c1ccc(N[C@H]2CC[C@H](Nc3nc4nccnc4[nH]3)C2)nc1 [Example 80, 6′-(((1S,3S)-3-((1H-Imidazo[4,5-b]pyrazin-2-yl)amino)cyclopentyl)amino)-2H-[1,3′-bipyridin]-2-one] | 6.80 | 8.29 | < 4.40 | 0.305 |
| O=c1[nH]c2ccccc2n1-c1ccc(N[C@H]2CC[C@H](Nc3nc4cccnc4[nH]3)C2)nc1 [Example 35, 1-(6-(((1S,3S)-3-((3H-Imidazo[4,5-b]pyridin-2-yl)amino)cyclopentyl)amino)pyridin-3-yl)-1,3-dihydro-2H-benzo[d]imidazol-2-one] | 6.97 | 9.15 | 4.56 | 7.61 |
| O=c1c(Cl)cccn1-c1ccc(N[C@H]2CC[C@H](Nc3nc4cccnc4[nH]3)C2)nc1 [Example 42, 6′-(((1S,3S)-3-((3H-Imidazo[4,5-b]pyridin-2-yl)amino)cyclopentyl)amino)-3-chloro-2H-[1,3′-bipyridin]-2-one] | 7.11 | 9.05 | < 4.40 | 6.14 |
| O=c1c(C(F)(F)F)cccn1-c1ccc(N[C@H]2CC[C@H](Nc3nc4cccnc4[nH]3)C2)nc1 [Example 64, 6′-(((1S,3S)-3-((3H-Imidazo[4,5-b]pyridin-2-yl)amino)cyclopentyl)amino)-3-(trifluoromethyl)-2H-[1,3′-bipyridin]-2-one] | 7.00 | 8.77 | < 4.40 | > 10 |
| Cn1c(=O)n(-c2ccc(N[C@H]3CC[C@H](Nc4nc5cccnc5[nH]4)C3)nc2)c2ccccc21 [Example 36, 1-(6-(((1S,3S)-3-((3H-Imidazo[4,5-b]pyridin-2-yl)amino)cyclopentyl)amino)pyridin-3-yl)-3-methyl-1,3-dihydro-2H-benzo[d]imidazol-2-one] | 7.22 | 9.22 | 4.59 | > 10 |
| Cc1ncc(-c2ccc(=O)n(-c3ccc(N[C@H]4CC[C@H](Nc5nc6cc(Br)cnc6[nH]5)C4)nc3)c2)cn1 [Example 52, 6′-(((1S,3S)-3-((6-Bromo-3H-imidazo[4,5-b]pyridin-2-yl)amino)cyclopentyl)amino)-5-(2-methylpyrimidin-5-yl)-2H-[1,3′-bipyridin]-2-one] | 6.23 | 8.35 | < 4.40 | 0.178 |
| COc1cnc2[nH]c(N[C@H]3CC[C@H](Nc4ccc(-n5ccccc5=O)cn4)C3)nc2c1 [Example 57, 6′-(((1S,3S)-3-((6-Methoxy-3H-imidazo[4,5-b]pyridin-2-yl)amino)cyclopentyl)amino)-2H-[1,3′-bipyridin]-2-one] | 7.18 | 8.37 | < 4.40 | 5.45 |
| O=c1ccc(Cl)cn1-c1ccc(N[C@H]2CC[C@H](Nc3nc4cccnc4o3)C2)nc1 [Example 13, 5-Chloro-6′-(((1S,3S)-3-(oxazolo[5,4-b]pyridin-2-ylamino)cyclopentyl)amino)-2H-[1,3′-bipyridin]-2-one] | 5.80 | 7.88 | 4.56 | > 10 |
